# Patent US20170183318A1, “AMIDE COMPOUNDS, METHODS FOR PREPARATION, AND USE THEREOF AS AGENTS FOR THE TREATMENT AND PREVENTION OF DISEASES CAUSED BY RNA- AND/OR DNA-CONTAINING VIRUSES, AND CONCOMITANT DISEASES” (OBSCHESTVO S OGRANICHENNOI OTVETSTVENNOSTIYU …, priority 2014, published 2017)
# Assays:
# [1] = Solubility in water noted for the isolated product; type: physicochemical; details: qualitative remark on the isolated product
# [2] = tested on: herpes simplex virus belonging to antigenic type 2; test: Murine model of experimental herpetic meningoencephalitis (mortality); type: in vivo, white outbred mice; details: Mus musculus, po, 336 h
# Description: In the study, herpes simplex virus belonging to antigenic type 2 was used. White outbred mice weighing 7-8 g were infected i/c (intracerebrally) in a volume of 0.05 ml/mouse comprising a dose of 10LD50. The infectious dose of the virus that caused 100% mortality in mice was 10LD50. Each experimental group comprised 20 mice. Intact animals served as control and were hold in a separate room under the same conditions as the experimental animals. The antiviral activity of the compounds of general formula I was studied by oral administration of the compounds to infected mice once daily at a dose of 30 mg/kg/mouse 24, 48, 72, 96, and 120 hours after infection of the animals with the virus. The mice of the control group were administered placebo (0.2 mL of physiological solution) under the same conditions. The animals were monitored for 14 days after infection by registration the mouse death in the groups.
# Each animal was subjected to once-daily observation. The observation included the assessment of general behavior and body condition of animals. The animals were handled according to the International Standards.
# The activity of the compounds was evaluated by comparing mortality rates in the groups of animals administered a preparation and placebo.
# [3] = Rat model of nasopharyngitis induced by formalin (nasal mucosa changes, cell elements in nasal lavage); type: in vivo; details: Wistar rats, 18 mg/kg for 3 days
# Description: Nasopharyngitis was induced by intranasal administration of formalin to each nasal passage of rats.
# The administration of formalin to the nasal passages of rats leads to the dissemination of inflammation to adjacent tissues, resulting in a clinical pattern similar to the symptoms of nasopharyngitis in a human.
# After an acclimatization period, the following groups were formed: • intact animals administered intragastrically a physiological solution in an amount of 0.2 ml, without induction of nasopharyngitis; • a control group consisted of animals administered intragastrically a physiological solution in an amount of 0.2 ml for 3 days after induction of nasopharyngitis; and • animals administered the studied compounds at a dose of 18 mg/kg for 3 days after induction of nasopharyngitis.
# Clinical observation of each animal was performed every day at least twice daily.
# The caused pathology was characterized by hyperplasia, increased number of caliciform cells, pronounced infiltration of mononuclear cells and leucocytes, and mucus hyperproduction by submucosal glands.
# After euthanasia, the inflammation pattern in the nasal passages and throat was studied in each group of animals. The nasal passages were washed with 5 mL of physiological solution and the score of cell elements were counted in 1 μL.
# Staphylococcus aureus = test: Murine model of staphylococcal pneumonia (bacterial growth from lung imprints); type: in vivo, outbred mice; details: reference drug, intravenously, single dose of 20 mg/kg; lung imprints; control 82.5
# Description: The efficiency of the compounds was evaluated in outbred mice (females) infected with Staphylococcus aureus (mouse-adapted strain). The administration of the compounds was started 5 days before infection, orally at doses of 15 and 30 mg/kg in a volume of 0.2 mL. On day 5, the mice were infected intranasally under brief ether anesthesia by administration of Staphylococcus aureus at a dose of 10^9 CFU in a volume of 0.05 mL. One hour after infection, the administration of the compounds to the mice was continued at the above-indicated doses for additional 2 days. The reference drug was ampicillin administered intravenously at a single dose of 20 mg/kg. The control was mice infected with Staphylococcus aureus intranasally and treated with PBS. The mice were sacrificed two days after, the breast was dissected, and lung imprints were made in Petri dishes with Columbia agar. After incubation for 24 hours at 30° C., the presence (or absence) of Staphylococcus aureus bacterial growth was fixed in comparison with the control. The intensity of bacterial growth was evaluated in scores and expressed in %.
# [4] = tested on: Coxsackie A2 virus (strain HCXV A2); test: Antiviral activity against Coxsackie virus in vivo (mortality and life expectancy of infected mice)
# Description: In the study a trypsin-dependent strain HCXV A2 was used, previously adapted and causing death in mice from Coxsackie virus infection.
# The experiment was carried out in white mice weighing 6 to 7 g. The animals were infected intramuscularly with a dose of 0.1 mL/mouse. The used infectious dose causing mortality in mice was 10LD50.
# The ability of compounds to provide a therapeutic effect was determined by the mortality rate of HCXV A2 virus-infected mice in the experimental group relative to the group of untreated animals.
# The studied compounds and placebo were administered orally according to the treatment regimen. Normal saline solution was administered to mice as placebo. Intact animals served as a negative control and were hold in a separate room under the same conditions as the experimental animals.
# For the experiment, groups were formed with 14-15 animals each. Compounds were administered at a dose of 30 mg/kg of body weight. The studied compounds were administered orally once daily for 7 days (first administration was made 24 hours after infection). The animals were monitored for 15 days during which the animals were weighed and the mortality rate was registered every day.
compound,measurement,setting,value
NS(=O)(=O)CCC(=O)NCCc1c[nH]cn1 [Compound 145],Solubility in water,[1],freely soluble in water
O=C(O)CCCNC(=O)CCc1cnc[nH]1 [Compound 68],mortality at 30 mg/kg,[2],30%
same,Mucous membrane of nasal passages: Without changes (number of animals),"[3]; number of animals out of n = 10, control 0 of 20",3
same,Mucous membrane of nasal passages: Discharge mucus from the nasal passages (number of animals),"[3]; number of animals out of n = 10, control 20 of 20",7
same,Solubility in water,[1],freely soluble in water
CC(C)(CCC(=O)O)C(=O)NCCc1cnc[nH]1 [Compound 45],Solubility in water,[1],freely soluble in water
"CC1(C)S[C@@H]2[C@H](NC(=O)[C@H](N)c3ccccc3)C(=O)N2[C@H]1C(=O)O [Ampicillin, ampicillin, reference compound]","Bacterial growth, in %",Staphylococcus aureus,25 (sporadic colonies (up to 10))
O=C(O)CCC(O)C(=O)NCCc1cnc[nH]1 (stereo not drawn) [Compound 67],inhibition in vivo at 30 mg/kg,"[4]; Mus musculus, po, 168 h, 30 mg/kg orally once daily for 7 days, vs virus control, read-out: Protective index (%)",50%
same,mortality at 30 mg/kg,"[4]; Mus musculus, po, 360 h, read-out: Total mortality, %",35.7%
same,"Average life expectancy (days), Compared with control","[4]; difference vs virus control, 30 mg/kg orally once daily for 7 days",+16.2 days
same,"Average life expectancy (days), Relative","[4]; mice infected with 10LD50 HCXV A2, 30 mg/kg orally once daily for 7 days",27.0 days
same,Solubility in water,[1],freely soluble in water
